Results: patent US20250313648A1, “Binders of Chondroitin Sulfate Proteoglycan (CSPG4) Polypeptides” (Regents of the University of Minnesota, priority 2021, published 2025)

Columns and labels:
[1] = test system: ZEB1 expression in HEY cells; assay: Western blot for pFAK, FAK and ZEB1 after FAK inhibitor treatment; type: cell-based, human; conditions: normal growth medium, 24 hours, vs DMSO
Method: FIGS. 9A-9J. CSPG4 expression is associated with epithelial-to-mesenchymal plasticity, mediated by CSPG4 associated changes in ZEB1 expression. FIG. 9A) The indicated cell lines both Mock(M) and CRISPR(C) were cultured separately in spheroid formation assays for 7 days, collected and analyzed by western blot for various EMT markers. FIG. 9B) Western blot for Zebl and CSPG4 expression in EOC cell lines treated with siRNA for ZEB1 or control for 48 hours. FIG. 9C) Western blot for pFAK, FAK and ZEB1 in HEY cells treated with either DMSO (control) or FAK inhibitor PND-1186 at the indicated concentrations in normal growth medium for 24 hours. FIG. 9D) Spheroid formation in methylcellulose of EOC cell lines treated with siRNA to ZEB1 or control for 7 days. Bars represent spheroid counts from five random fields/well from triplicate wells+/−S.D. *p<0.02 by students t-test with Welch's correction. n=3 from 3 individual experiments. FIG. 9E) Invasion assay of EOC cells treated with ZEB1 siRNA or control siRNA (methods). *p<0.002 by student's t-test with Welch's correction. n=3 from 3 individual experiments. FIGS. 9F and 9G) Cells were transfected with control or ZEB1 siRNA overnight and plated in the cisplatin cytotoxicity assay the following day. MTS data was collected after 4 days of cisplatin treatment. […]

[2] = test system: ES-2, HEY, A2780 mock and CSPG4 knockout cells; assay: Cisplatin cytotoxicity assay (MTS); type: cell-based, human; conditions: CSPG4 knockout vs mock, three cell lines (A2780, HEY, ES-2), 96 hours of treatment
Text: FIGS. 5A-5G. CSPG4 knockout results in significant loss of invasive capacity and cisplatin resistance in multiple ovarian tumor cell lines. Invasion assays using control (Mock) and CSPG4 knockout (CRISPR) HEY cells (FIG. 5A) or A2780 cells (FIG. 5B). Bars represent the total number of invading cells from five random fields/well from triplicate wells, +/−S.D., from three replicate experiments, n=6. P values determined by student's t-test with Welch's correction. […] Lanes: 1—ES-2 Parent, 2—ES-2 Mock, 3—ES-2 CSPG4 knockout, 4—ES-2 CSPG4 Rescue. […] Invasive capacity is rescued in the ES-2 CRISPR knockout line with CSPG4 re-expression (Rescue). P values determined by student's t-test with Welch's correction. FIGS. 5E-G show the cell viability of mock and knockout (CRISPR) A2780 cells (FIG. 5E), mock and knockout HEY cells (FIG. 5F), and mock, knockout and rescue ES-2 cells (FIG. 5G) treated with increasing concentrations of cisplatin. Dose response curves were plotted as the percent of MTS staining vs. untreated cells for each cell line +/−s.e.m. from three replicate experiments (n=9). The phenotype was rescued by re-expression of CSPG4 in the ES-2 CRISPR cells (ES-2 Rescue, in FIG. 5G).
Cisplatin cytotoxicityAssay: Cisplatin stock (3.3 mM) was diluted with growth medium to the required concentrations before each experiment. […] Absorbance at 570 nm was collected on a Tecan 200 plate reader. […]

CNC(=O)c1ccccc1Nc1cc(Nc2ccc(N3CCOCC3)cc2OC)ncc1C(F)(F)F [PND-1186]
ZEB1 expression [1]: inhibited

N.N.[Cl][Pt][Cl] [cisplatin, Cisplatin]
reduction in the IC50 for the knockout cell lines [2]: 3.6-to-8.8 fold
